Test results published in ChEMBL document CHEMBL5046310, “Design, Synthesis and Biological Evaluation of Prodrugs of 666-15 as Inhibitors of CREB-Mediated Gene Transcription” (ACS Med Chem Lett, 2022).

How the values were obtained:
[1] = Stability of the compound in DMEM media with 10% fetal bovine serum assessed as hydrolysis of prodrug at 25 uM measured for 5 mins by RP-HPLC analysis; type: ADME, cell-free; conditions: cattle
[2] = Tmax in C57BL/6 mouse at 20 mg/kg, po measured up to 24 hrs by LC-MS/MS analysis; type: ADME, organism-based; conditions: in vivo
[3] = Tmax in C57BL/6 mouse at 10 mg/kg, ip measured up to 24 hrs by LC-MS/MS analysis; type: ADME, organism-based; conditions: in vivo
[4] = Apparent permeability of the compound across apical to basolateral side in human Caco-2 cells; type: ADME, cell-based

t1/2 [1] [h]	Tmax [2] [h]	Tmax [3] [h]	Papp A→B [4] [×10⁻⁶ cm/s]	SMILES
2.61				NCCCOc1cc2ccccc2cc1C(=O)NCCOc1cc2ccccc2cc1C(=O)Nc1ccc(Cl)cc1OCOP(=O)(O)O.O=C(O)C(F)(F)F
	2	1		NCCCOc1cc2ccccc2cc1C(=O)NCCOc1cc2ccccc2cc1C(=O)Nc1ccc(Cl)cc1OP(=O)(O)O.O=C(O)C(F)(F)F
	2	0.25	< 0.11	Cl.NCCCOc1cc2ccccc2cc1C(=O)NCCOc1cc2ccccc2cc1C(=O)Nc1ccc(Cl)cc1O
